In brackets after ≈: the same amount, converted by molar mass. Entries after “also recorded” stand apart in the source; their conditions may differ.
How the values were obtained:
L 929 cell = experiment: Cytotoxicity, 50% growth inhibition of L 929 cell; format: cell-based
Experimental: (§1) B-16 melanoma cell, P388 leukemia cell or L 929 cell was cultivated together with a prescribed amount of a test drug on a 24-well or 96-well test plate and the number of living cells was measured one day or 3 days later to know the 50% growth inhibition concentration.

B-16 melanoma cell = experiment: Cytotoxicity, 50% growth inhibition of B-16 melanoma cell; format: cell-based
Experimental: as §1

[1] = Acute toxicity, i.p. injection in BDF1 mouse; format: in vivo; conditions: in vivo, ip, 5 weeks old, female, intraperitoneal, read-out: 50% Lethal dose (LD50)
Experimental: (§2) A test drug was injected into the peritoneal cavity of BDF1 mouse (5 weeks old, female) to measure 50% lethal dose (LD50).

P388 leukemia cell = experiment: Cytotoxicity, 50% growth inhibition of P388 leukemia cell; format: cell-based; conditions: Mus musculus, read-out: 50% growth inhibition concentration (IC50)
Experimental: as §1

L 929 cells = experiment: Effect on cytotoxic activity of TNF; format: cell-based
Experimental: L 929 cells (10^4 cells/well) was cultivated on a test plate having 96 wells, and after 24 hours, a test drug and recombinant human-tumor necrosis factor (rHu - TNF) were added thereto such that rHu - TNF became 2.5×10^-11 g/ml (TNF activity of 2 unit/ml), and then, after 24 hours, the number of living cells was measured.
The effect of test drug on the cytotoxicity of TNF was calculated according to the above-mentioned formula (A) and shown by "%" value.
^1 The experiments were effected in the presence of TNF (2 units/ml)

[2] = Recovery effect on cachectin/TNF-induced reduction of lipoprotein lipase (LPL) in adipocytes; format: cell-based; conditions: mouse, 3t3-l1 cells; read-out: Concentration at which OK exhibits cytotoxicity
Experimental: (§3) 3T3-L1 cells (5×10^4 cells per well) were cultivated in wells of 48-well test plate for about one week until the cell growth reached became confluent. Test drug and 4×10^-10 ^- 10 g/ml (32 unit/ml as TNF activity) of recombinant human TNF (rHu-TNF) were added, and the cultivation was further continued.
(§4) After 20 hours, the test drug and rHu-TNF were removed. Then 10 unit/ml of heparin was added, and after 90 min., activity of lipoprotein lipase (LPL) isolated from 3T3-L1 cell by heparin was measured according to the method as described in Nelsson-Ehle, P., et al., J. Lipid Res., 17, 536 (1976).
(§5) On the LPL activity measured, the recovery on the reduction of lipoprotein lipase production was calculated by the following formula: [formula]
(§6) ^1 The experiment was performed in the presence of rHu TNF (32

[3] = system: lipoprotein lipase (LPL) of 3T3-L1 cells; experiment: as above; format: cell-based
Experimental: as §3, §4, §5, §6

BDF1 mouse = experiment: Acute toxicity, i.p. injection in BDF1 mouse; format: in vivo
Experimental: as §2

Solubility = format: physicochemical
Stability = format: physicochemical
Acid or base = format: physicochemical

| Molecule | IC50 (L 929 cell; Mus musculus, L929, read-out: 50% growth inhibition concentration (IC50)) | IC50 (B-16 melanoma cell; Mus musculus, B16, 24 h, B-16 melanoma, cultivated for one day, read-out: 50% growth inhibition concentration (IC50)) | LD50 [1] | IC50 (P388 leukemia cell) | Effect on cytolytic activity of TNF (in words) (L 929 cells) | MCC [2] | Effect on lowered LPL production (in words) ([3]; OK, even at 0.1 μg/ml) | 50% growth inhibition concentration (IC50) (L 929 cell) | 50% growth inhibition concentration (IC50) (B-16 melanoma cell; B-16 melanoma, cultivated for one day) | Cytotoxicity compared with OK (B-16 melanoma cell; all cell species of Table 1) | Toxicity (in words) (BDF1 mouse) | 50% Lethal dose (LD50) (BDF1 mouse; 5 weeks old, female, intraperitoneal) | LD50 of GOK relative to that of OK (BDF1 mouse; intraperitoneal) | Solubility (Solubility; acetone or chloroform) | Solubility (Solubility; methanol, ethanol or pyridine) | Stability (Stability; acid) | Stability (Stability; alkali) | Acid or base (Acid or base) | Recovery of LPL generation in adipocytes (in words) [3] | Concentration with effect of recovering from the lowering of production of lipoprotein lipase ([3]; 3T3-L1 cells with rHu-TNF) |
| --- | --- | --- | --- | --- | --- | --- | --- | --- | --- | --- | --- | --- | --- | --- | --- | --- | --- | --- | --- | --- |
| C=C1C(O)C2OC3(CCC(C=CC(C)C4CC(C)=CC5(OC(CC(C)(O)C(=O)O)CCC5O)O4)O3)CCC2OC1C(O)CC(C)C1OC2(CCCCO2)CCC1C (stereo not drawn) [OK, okadaic acid] | 0.084 µg/mL (≈ 0.104 µM) | 0.018 µg/mL (≈ 0.0224 µM) | 0.16 mg/kg | 0.024 µg/mL (≈ 0.0298 µM) | Neither GOK nor OK affected the cytolytic activity of TNF | 0.1 µg/mL | did not exhibit the effect of inhibition | – | – | – | – | – | – | – | – | – | – | – | – | – |
| glycookadaic acid [GOK] | – | – | – | – | Neither GOK nor OK affected the cytolytic activity of TNF; also recorded: does not suppress the cytotoxic activity of cachectin/TNF toward cancer cells | – | – | 28 µg/mL | 19 µg/mL | much weaker than that of OK | toxicity of GOK is low; also recorded: far safer drug than OK | > 16 mg/kg | ≥ 100 times | Insoluble or sparsely soluble | Easily soluble | Unstable to acid | Relatively stable to alkali | Weekly acidic substance | specifically recovers the lowering effect on the generation of lipoprotein lipase in adipocytes | 3 to 10 µg/mL |

Source: US4835176A, “Glycookadaic acid, preparation thereof and use thereof” (priority 1987, dated 1989)
